Biological target: IDO (Homo sapiens (Human), UniProt P14902)
Experiment: Kynurenine assay in IFN-γ-stimulated Hela cells
Type: cell-based
Details: 20 h, read-out: Hela Kyurenine (IC50)
Experimental: Reagents: Hela cells (ATCC, CCL-2)
IFNg (R&D, 28-IF-100)—resuspend at 10 ug/mL in PBS with 0.1% BSA 30% TCA
Ehrlich reagent (2% w/v p-dimethylaminobenzaldehyde in glacial acetic acid)
Cell Lines and Culture Conditions
Hela cancer cell lines were acquired from the American Type Culture Collection. Cells were maintained in phenol red free-RPMI1640 medium containing high glucose and L-glutamine (Invitrogen) supplemented with 10% fetal bovine serum (FBS; Invitrogen). Cell cultures were incubated at 37° C., 5% CO2, and 100% humidity.
Cell Treatment and Kynurenine Assay
Hela cells were seeded on 96-well plates (40,000 cells per well) and allowed to adhere for 5-6 hours. Cells were then treated with vehicle (DMSO) or with IDO inhibitor at a top dose of 30 μM (3-fold dilution all the way down to 1.5 nM). A final concentration of 100 ng/mL of human recombinant IFN-γ (R&D, 28-IF-100) was immediately added to the cells to stimulate IDO expression. Treated cells were then incubated for 20 hours at 37° C. At the end of the 20 h incubation, reactions were terminated by the addition of 30% TCA to each well. Plates were incubated for 30 minutes at 50° C. to hydrolyze N-formylkynurenine to kynurenine. Cells were centrifuged 10 minutes at 2400 rpm. 100 ul of supernatants were transferred to new 96 flat well plates and mixed with 100 ul Ehrlich reagent. The resulting solution was incubated 10 minutes at RT. Absorbance at 490 nm was read using Spectra Max 384 (Molecular Devices).

IDO, sequence (P14902 whole entry): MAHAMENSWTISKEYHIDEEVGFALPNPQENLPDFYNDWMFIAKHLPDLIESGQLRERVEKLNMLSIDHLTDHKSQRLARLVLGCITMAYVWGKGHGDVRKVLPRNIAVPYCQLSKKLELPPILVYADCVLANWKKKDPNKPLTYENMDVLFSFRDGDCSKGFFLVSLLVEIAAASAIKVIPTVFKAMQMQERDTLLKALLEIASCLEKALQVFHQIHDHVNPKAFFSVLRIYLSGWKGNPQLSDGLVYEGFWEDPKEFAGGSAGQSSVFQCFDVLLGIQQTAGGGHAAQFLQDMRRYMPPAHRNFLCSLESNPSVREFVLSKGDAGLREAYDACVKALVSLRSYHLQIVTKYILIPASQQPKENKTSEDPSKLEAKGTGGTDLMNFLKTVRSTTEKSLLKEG

Row | IC50 [nM] | SMILES
1 | 1130 | O=C(Nc1ccccc1Cl)Nc1cc(-c2ccccc2-c2nnn[nH]2)ccc1Oc1cccc2c1CCCC2 [Example 186, 1-(2-chlorophenyl)-3-(4-(5,6,7,8-tetrahydronaphthalen-1-yloxy)-2′-(1H-tetrazol-5-yl)biphenyl-3-yl)urea]
2 | 310 | COc1ccc(-c2ccc(Oc3c(C)cccc3C(C)(C)C)c(NC(=O)Nc3ccc(C)cc3)c2)cc1C(=O)O [Example 61, 4′-(2-tert-butyl-6-methylphenoxy)-4-methoxy-3′-(3-p-tolylureido)biphenyl-3-carboxylic acid]
3 | 540 | CCc1ccccc1Oc1ccc(-c2ccc(OC)c(C(=O)O)c2)cc1NC(=O)Nc1ccc(C)cc1 [Example 47, 4′-(2-ethylphenoxy)-4-methoxy-3′-(3-p-tolylureido)biphenyl-3-carboxylic acid]
4 | 3460 | CC(C)(C)c1ccccc1Oc1ccc(-c2ccc(C(=O)O)cc2)cc1NC(=O)Nc1ccc(OC(F)(F)F)cc1 [Example 265, 4′-(2-tert-butylphenoxy)-3′-(3-(4-(trifluoromethoxy)phenyl)ureido)biphenyl-4-carboxylic acid]
5 | 600 | COc1ccc(Cl)cc1NC(=O)Nc1cc(-c2ccc(OC)c(C(=O)O)c2)ccc1Oc1ccccc1C(C)(C)C [Example 109, 4′-(2-(tert-butyl)phenoxy)-3′-(3-(5-chloro-2-methoxyphenyl)ureido)-4-methoxy-[1,1′-biphenyl]-3-carboxylic acid]
6 | 130 | COc1ccc(-c2ccc(Oc3ccccc3C(C)(C)C)c(NC(=O)Nc3c(F)cccc3F)c2)cc1C(=O)O [Example 80, 4′-(2-(tert-butyl)phenoxy)-3′-(3-(2,6-difluorophenyl)ureido)-4-methoxy-[1,1′-biphenyl]-3-carboxylic acid]
7 | 880 | COc1ccc(-c2ccc(Oc3c(C)cccc3C(C)(C)C)c(NC(=O)Nc3ccccc3C)c2)cc1C(=O)O [Example 59, 4′-(2-tert-butyl-6-methylphenoxy)-4-methoxy-3′-(3-o-tolylureido)biphenyl-3-carboxylic acid]
8 | 1690 | CC(C)(C)c1ccccc1Oc1ccc(-c2ccc(C(=O)O)cc2)cc1NC(=O)Nc1ccccc1Cl [Example 202, 4′-(2-tert-butylphenoxy)-3′-(3-(2-chlorophenyl)ureido)biphenyl-4-carboxylic acid]
9 | 160 | COc1ccc(-c2ccc(Oc3ccccc3C(C)(C)C)c(NC(=O)Nc3cccc(F)c3)c2)cc1C(=O)O [Example 84, 4′-(2-(tert-butyl)phenoxy)-3′-(3-(3-fluorophenyl)ureido)-4-methoxy-[1,1′-biphenyl]-3-carboxylic acid]
10 | 250 | COc1ccc(-c2ccc(Oc3ccccc3C(C)(C)C)c(NC(=O)NC3CCCCC3)c2)cc1C(=O)O [Example 91, 4′-(2-(tert-butyl)phenoxy)-3′-(3-(cyclohexyl)ureido)-4-methoxy-[1,1′-biphenyl]-3-carboxylic acid]
11 | 230 | COc1cccc(NC(=O)Nc2cc(-c3ccc(OC)c(C(=O)O)c3)ccc2Oc2ccccc2C(C)(C)C)c1 [Example 86, 4′-(2-(tert-butyl)phenoxy)-3′-(3-(3-methoxyphenyl)ureido)-4-methoxy-[1,1′-biphenyl]-3-carboxylic acid]
12 | 840 | COc1ccc(-c2ccc(Oc3ccccc3C(C)(C)C)c(NC(=O)Nc3c(Cl)cccc3Cl)c2)cc1C(=O)O [Example 82, 4′-(2-(tert-butyl)phenoxy)-3′-(3-(2,6-dichlorophenyl)ureido)-4-methoxy-[1,1′-biphenyl]-3-carboxylic acid]
13 | 87900 | Cc1ccc(NC(=O)Nc2cc(-c3ccc(C(=O)O)cc3)cnc2Oc2ccccc2)cc1 [Example 338]
14 | 160 | COc1ccc(-c2ccc(Oc3ccccc3C(C)(C)C)c(NC(=O)Nc3cccc(Cl)c3C)c2)cc1C(=O)O [Example 98, 4′-(2-(tert-butyl)phenoxy)-3′-(3-(3-chloro-2-methylphenyl)ureido)-4-methoxy-[1,1′-biphenyl]-3-carboxylic acid]
15 | 1390 | COc1ccc(-c2ccc(O[C@@H]3CCCC[C@H]3C)c(NC(=O)Nc3ccc(C)cc3)c2)cc1C(=O)O (relative stereo) [Example 134, 4-methoxy-4′-((trans)-2-methylcyclohexyloxy)-3′-(3-p-tolylureido)biphenyl-3-carboxylic acid]
16 | 220 | COc1ccc(-c2ccc(Oc3ccccc3C(C)(C)C)c(NC(=O)Nc3ccc(C(C)(C)C)cc3)c2)cc1C(=O)O [Example 99, 4′-(2-(tert-butyl)phenoxy)-3′-(3-(4-(tert-butyl)phenyl)ureido)-4-methoxy-[1,1′-biphenyl]-3-carboxylic acid]

Row | IC50 [nM] | SMILES
17 | 180 | COc1ccc(-c2ccc(Oc3ccccc3C(C)(C)C)c(NC(=O)Nc3ccc(C)c(C)c3)c2)cc1C(=O)O [Example 96, 4′-(2-(tert-butyl)phenoxy)-3′-(3-(3,4-dimethylphenyl)ureido)-4-methoxy-[1,1′-biphenyl]-3-carboxylic acid]
18 | 660 | Cc1ccc(NC(=O)Nc2cc(-c3cc(F)cc(C(=O)O)c3)ccc2Oc2ccccc2C(C)(C)C)cc1 [Example 252, 4′-(2-tert-butylphenoxy)-5-fluoro-3′-(3-p-tolylureido) biphenyl-3-carboxylic acid]
19 | 930 | CCNC(=O)Nc1cc(-c2cccc(C(=O)O)c2)ccc1Oc1ccccc1C(C)(C)C [Example 220, 4′-(2-tert-butylphenoxy)-3′-(3-ethylureido) biphenyl-3-carboxylic acid]
20 | 180 | COc1ccc(-c2ccc(Oc3ccccc3C)c(NC(=O)Nc3ccccc3Cl)c2)cc1C(=O)O [Example 71, 3′-(3-(2-chlorophenyl)ureido)-4-methoxy-4′-(o-tolyloxy)biphenyl-3-carboxylic acid]
21 | 1050 | Cc1cccc(NC(=O)Nc2cc(-c3ccccc3-c3nnn[nH]3)ccc2Oc2ccccc2C(C)(C)C)c1 [Example 182, 1-(4-(2-tert-butylphenoxy)-2′-(1H-tetrazol-5-yl)biphenyl-3-yl)-3-m-tolylurea]
22 | 1270 | COc1ccc(-c2ccc(Oc3ccccc3Cl)c(NC(=O)Nc3ccccc3C(F)(F)F)c2)cc1C(=O)O [Example 52, 4′-(2-chlorophenoxy)-4-methoxy-3′-(3-(2-(trifluoromethyl)phenyl)ureido)biphenyl-3-carboxylic acid]
23 | 240 | COc1ccc(-c2ccc(Oc3ccccc3C(C)(C)C)c(NC(=O)Nc3cccc(C)c3C)c2)cc1C(=O)O [Example 92, 4′-(2-(tert-butyl)phenoxy)-3′-(3-(2,3-dimethylphenyl)ureido)-4-methoxy-[1,1′-biphenyl]-3-carboxylic acid]
24 | 490 | COc1ccc(-c2ccc(Oc3ccccc3C(C)(C)C)c(NC(=O)Nc3ccccc3C)c2)cc1C(=O)O [Example 44, 4′-(2-tert-butylphenoxy)-4-methoxy-3′-(3-o-tolylureido)biphenyl-3-carboxylic acid]
25 | 620 | COc1ccc(NC(=O)Nc2cc(-c3ccc(OC)c(C(=O)O)c3)ccc2Oc2ccccc2C(C)(C)C)c(C)c1 [Example 93, 4′-(2-(tert-butyl)phenoxy)-4-methoxy-3′-(3-(4-methoxy-2-methylphenyl)ureido)-[1,1′-biphenyl]-3-carboxylic acid]
26 | 310 | Cc1ccc(NC(=O)Nc2cc(-c3ccc(C(=O)O)cc3)ccc2Oc2ccccc2C(C)(C)C)cc1 [Example 256, 4′-(2-tert-butylphenoxy)-3′-(3-p-tolylureido) biphenyl-4-carboxylic acid]
27 | 260 | COc1ccc(-c2ccc(Oc3ccccc3C(C)(C)C)c(NC(=O)Nc3cc(C)ccc3C)c2)cc1C(=O)O [Example 95, 4′-(2-(tert-butyl)phenoxy)-3′-(3-(2,5-dimethylphenyl)ureido)-4-methoxy-[1,1′-biphenyl]-3-carboxylic acid]
28 | 4560 | CC(C)(C)c1ccccc1Oc1ccc(-c2cc(Cl)cc(C(=O)O)c2)cc1NC(=O)Nc1ccc(OC(F)(F)F)cc1 [Example 262, 4′-(2-tert-butylphenoxy)-5-chloro-3′-(3-(4-(trifluoromethoxy)phenyl)ureido) biphenyl-3-carboxylic acid]
29 | 690 | CC(C)(C)c1ccccc1Oc1ccc(-c2ccccc2-c2nnn[nH]2)cc1NC(=O)Nc1ccccc1C(F)(F)F [Example 183, 1-(4-(2-tert-butylphenoxy)-2′-(1H-tetrazol-5-yl)biphenyl-3-yl)-3-(2-(trifluoromethyl)phenyl)urea]
30 | 1820 | O=C(Nc1ccc(OC(F)(F)F)cc1)Nc1cc(-c2cccc(C(=O)O)c2)ccc1Oc1ccc(Cl)cc1 [Example 243, 4′-(4-chlorophenoxy)-3′-(3-(4-(trifluoromethoxy)phenyl)ureido) biphenyl-3-carboxylic acid]
31 | 1340 | Cc1ccc(NC(=O)Nc2cc(-c3cccc(C(=O)O)c3)ccc2Oc2c(Cl)cccc2Cl)cc1 [Example 247, 4′-(2,6-dichlorophenoxy)-3′-(3-p-tolylureido) biphenyl-3-carboxylic acid]
32 | 210 | CC(C)(C)c1ccccc1Oc1ccc(-c2ccccc2-c2nnn[nH]2)cc1NC(=O)Nc1ccccc1Cl [Example 179, 1-(4-(2-tert-butylphenoxy)-2′-(1H-tetrazol-5-yl)biphenyl-3-yl)-3-(2-chlorophenyl)urea]

— patent US9765018B2, “IDO inhibitors” (BRISTOL-MYERS SQUIBB COMPANY, priority 2013, dated 2017)
